One may read the IC50 as the midpoint of a concentration-inhibition curve.

Results on 24 compounds are retold here after US9120749B2, “Quinoline derivatives and MELK inhibitors containing the same” (ONCOTHERAPY SCIENCE, INC., priority 2010, dated 2015).

The structures appear in SMILES notation. Like-named read-outs stand apart in the source and are kept apart here.

The subject of one experiment is A549 cells. The experiment is described as follows: Cell-based assay: anti-proliferative activity, Cell Counting Kit-8, 72 hours (A549). Particulars: Homo sapiens, A549, 72 h, 72 hours. The gist of the method: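 Cell Counting Kit-8 read-out of A549 growth after 72 hours of inhibitor exposure, cells plated in 96-well format. Values reported as IC50.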
A general note: Tetrazolium assays rely on reduction of a dye to a coloured formazan, in cell work by metabolically active cells.

The next experiment concerns T47D cells. The experiment can be described thus: Cell-based assay: anti-proliferative activity, Cell Counting Kit-8, 72 hours (T47D). The following applies: Homo sapiens, T47D, 72 h. An outline of the steps: (§1)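 Target-specific cytotoxicity: seeded cells treated with MELK inhibitor candidates for 72 h, proliferation quantified via CCK-8, IC50 fitted.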
The test system of another experiment is DU4475. The experiment is described as follows: Cell-based assay: anti-proliferative activity, Cell Counting Kit-8, 72 hours (DU4475). The following applies: Homo sapiens, DU-4475, DU4475 cells.
In a further experiment the target is MELK (Homo sapiens, UniProt Q14680). The experiment is described as follows: Kinase assay: MELK activity, phosphorylation of FITC-labeled histone H3 peptide measured by IMAP fluorescence polarization. The format is biochemical. Particulars: read-out: IC50 (μM) (kinase assay). The gist of the method: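 Polarization of fluorescence served as the signal for MELK turnover of FITC-conjugated histone H3 peptide. Binding solution quenched each reaction, and plates stood 0.5 hour at room temperature before reading.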
MELK, sequence (Q14680 whole entry, looked up): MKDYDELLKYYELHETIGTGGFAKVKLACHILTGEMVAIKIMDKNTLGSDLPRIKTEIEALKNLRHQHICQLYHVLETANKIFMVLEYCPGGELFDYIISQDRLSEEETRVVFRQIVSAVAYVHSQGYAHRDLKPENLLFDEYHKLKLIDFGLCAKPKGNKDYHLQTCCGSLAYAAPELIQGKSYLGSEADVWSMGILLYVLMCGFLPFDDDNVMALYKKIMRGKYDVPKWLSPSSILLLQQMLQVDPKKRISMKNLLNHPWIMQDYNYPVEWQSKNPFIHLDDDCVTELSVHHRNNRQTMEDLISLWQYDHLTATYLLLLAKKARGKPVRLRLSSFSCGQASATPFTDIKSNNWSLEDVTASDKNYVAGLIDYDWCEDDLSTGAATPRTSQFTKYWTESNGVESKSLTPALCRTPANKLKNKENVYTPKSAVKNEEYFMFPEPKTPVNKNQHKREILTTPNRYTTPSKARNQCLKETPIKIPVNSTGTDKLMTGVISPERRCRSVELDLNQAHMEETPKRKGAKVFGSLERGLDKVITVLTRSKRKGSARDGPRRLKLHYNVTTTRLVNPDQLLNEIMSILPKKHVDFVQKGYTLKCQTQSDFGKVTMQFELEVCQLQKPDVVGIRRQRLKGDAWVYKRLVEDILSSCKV
(In general: Fluorescence polarisation rises when a labelled molecule tumbles more slowly, as on binding a larger partner.)

For another experiment, the system named is HT-1197 cells. The experiment can be described thus: Cell-based assay: anti-proliferative activity, Cell Counting Kit-8, 72 hours (HT-1197, negative control without MELK expression). Particulars: Homo sapiens, HT1197, 72 h, HT1197 cells (negative control, no MELK expression), 72 hours. The gist of the method:
as §1

Where [1] appears, read: 50 micro-M ATP, FITC-labeled histone H3 peptide substrate, IMAP fluorescence polarization.

Regarding `CN1CCN(Cc2ccc(Nc3c(C(=O)C4CC4)cnc4ccc(-c5cc(Cl)c(O)c(Cl)c5)cc34)cc2)CC1` [Example 397, Cyclopropyl{6-(3,5-dichloro-4-hydroxyphenyl)-4-[4-((4-methylpiperazin-1-yl)methyl)phenylamino]quinolin-3-yl}methanone], the IC50 in the experiment with A549 cells was determined as 0.15 µM; with T47D cells, 0.33 µM; in the experiment on DU4475 it was 0.088 µM; on MELK (setting [1]) it was 0.0076 µM; in the experiment with HT-1197 cells, 5.2 µM.
Turning to `COc1cc(-c2ccc3ncc(C(=O)C4CC4)c(Nc4ccc(CN5CCN(C)CC5)cc4)c3c2)cc(Cl)c1O` [Example 398, (6-(3-chloro-4-hydroxy-5-methoxyphenyl)-4-(4-((4-methylpiperazin-1-yl)methyl)phenylamino)quinolin-3-yl)(cyclopropyl)methanone], the IC50 in the experiment with A549 cells stood at 0.38 µM; in the experiment on T47D cells, 0.78 µM; with DU4475 it was 0.73 µM; at MELK (setting [1]), 0.0084 µM; in the experiment on HT-1197 cells, 4.7 µM.
In the case of `CN(C)Cc1ccc(Nc2c(S(C)(=O)=O)cnc3ccc(-c4cc(F)c(O)c(Cl)c4)cc23)cc1` [Example 399, 2-chloro-4-(4-(4-((dimethylamino)methyl)phenylamino)-3-(methylsulfonyl)quinolin-6-yl)-6-fluorophenol], the IC50 was determined as 0.47 µM in the experiment with A549 cells; 0.27 µM in the experiment with T47D cells; 0.16 µM in the experiment on DU4475; 0.016 µM on MELK (setting [1]); 1.9 µM in the experiment on HT-1197 cells.
`CN(C)Cc1ccc(Nc2c(S(C)(=O)=O)cnc3ccc(-c4cc(Cl)c(O)c(Cl)c4)cc23)cc1` [Example 400, 2,6-dichloro-4-(4-((4-((dimethylamino)methyl)phenyl)amino)-3-(methylsulfonyl)quinolin-6-yl)phenol]: the IC50 in the experiment with A549 cells turned out to be 0.3 µM; in the experiment with T47D cells it was 0.23 µM; in the experiment on DU4475 it was 0.07 µM; at MELK (setting [1]), 0.0034 µM; in the experiment with HT-1197 cells it was 1.8 µM.
For `O=C(c1cnc2ccc(-c3cc(F)c(O)c(Cl)c3)cc2c1N1CCN(CCN2CCCC2)CC1)C1CC1` [Example 402, (6-(3-chloro-5-fluoro-4-hydroxyphenyl)-4-(4-(2-(pyrrolidin-1-yl)ethyl)piperazin-1-yl)quinolin-3-yl)(cyclopropyl)methanone], the IC50 in the experiment on A549 cells was 1.2 µM; in the experiment with T47D cells, 0.88 µM; in the experiment with DU4475 it was 0.48 µM; on MELK (setting [1]), 0.0058 µM; in the experiment on HT-1197 cells, 5.1 µM.
The like results for `O=C(c1cnc2ccc(-c3cc(Cl)c(O)c(Cl)c3)cc2c1Nc1ccc(N2CCNCC2)nc1)C1CC1` [Example 409, Cyclopropyl{6-(3,5-dichloro-4-hydroxyphenyl)-4-[6-(piperazin-1-yl)pyridin-3-ylamino]quinolin-3-yl}methanone] were, in that order, 0.26 µM, 0.074 µM, 0.098 µM, 0.0017 µM and 1.6 µM.
The like results for `CC(=O)c1cnc2ccc(-c3cc(Cl)c(O)c(Cl)c3)cc2c1Nc1ccc(CN2CCCC2)cc1` [Example 415, 1-(6-(3,5-dichloro-4-hydroxyphenyl)-4-((4-(pyrrolidin-1-ylmethyl)phenyl)amino)quinolin-3-yl)ethanone] were, in that order, 0.15 µM, 0.12 µM, 0.067 µM, 0.035 µM and 10 µM.
Turning to `CC(=O)c1cnc2ccc(-c3cnc(C#N)nc3)cc2c1N[C@H]1CC[C@H](CN(C)C)CC1` [Example 418], the IC50 in the experiment on A549 cells is 0.95 µM; in the experiment on T47D cells, 0.23 µM; with DU4475, 0.5 µM; on MELK (setting [1]), 0.0073 µM; in the experiment on HT-1197 cells, 1.4 µM.
As to `CN(C)C[C@H]1CC[C@H](Nc2c(S(C)(=O)=O)cnc3ccc(-c4cc(Cl)c(O)c(Cl)c4)cc23)CC1` [Example 420, 2,6-dichloro-4-(4-((1R,4R)-4-((dimethylamino)methyl)cyclohexylamino)-3-(methylsulfonyl)quinolin-6-yl)phenol], the IC50 with A549 cells is 0.69 µM; in the experiment with T47D cells, 0.47 µM; in the experiment on DU4475 it was 0.14 µM; at MELK (setting [1]) it was 0.0023 µM; in the experiment on HT-1197 cells, 2.5 µM.
Take `CN(C)C[C@H]1CC[C@H](Nc2c(S(C)(=O)=O)cnc3ccc(-c4cc(F)c(O)c(Cl)c4)cc23)CC1` [Example 423]: the IC50 is 0.93 µM with A549 cells; 0.42 µM in the experiment with T47D cells; 0.31 µM in the experiment with DU4475; 0.0063 µM at MELK (setting [1]); 2.4 µM in the experiment on HT-1197 cells.
For `COc1cc(-c2ccc3ncc(C(=O)C4CC4)c(N4CCN(C(=O)CN(C)C)CC4)c3c2)cc(Cl)c1O` [Example 437, 1-(4-(6-(3-chloro-4-hydroxy-5-methoxyphenyl)-3-(cyclopropanecarbonyl)quinolin-4-yl)piperazin-1-yl)-2-(dimethylamino)ethanone], the IC50 amounted to 0.19 µM in the experiment with A549 cells; 0.28 µM with T47D cells; 0.22 µM with DU4475; 0.0011 µM on MELK (setting [1]); 1.7 µM in the experiment with HT-1197 cells.
For `COc1cc(-c2ccc3ncc(C(=O)C4CC4)c(-c4ccc(N5CCN(C)CC5)cc4)c3c2)cc(Cl)c1O` [Example 438, (6-(3-chloro-4-hydroxy-5-methoxyphenyl)-4-(4-(4-methylpiperazin-1-yl)phenyl)quinolin-3-yl)(cyclopropyl)methanone], the IC50 in the experiment on A549 cells amounted to 0.25 µM; in the experiment on T47D cells, 0.39 µM; with DU4475, 0.49 µM; on MELK (setting [1]), 0.018 µM; in the experiment on HT-1197 cells, 6.5 µM.
In the case of `CCOc1cc(-c2ccc3ncc(C(=O)C4CC4)c(N4CCC(CN(C)C)CC4)c3c2)cc(Cl)c1O` [Example 457], the IC50 was found to be 0.14 µM in the experiment with A549 cells; 0.22 µM with T47D cells; 0.21 µM in the experiment with DU4475; 0.0024 µM at MELK (setting [1]); 2.4 µM with HT-1197 cells.
`O=C(c1cnc2ccc(-c3cc(F)c(O)c(Cl)c3)cc2c1Nc1ccc(CN2CCOCC2)cc1)C1CC1` [Example 460]: the half-maximal inhibitory concentration (IC50) with A549 cells was found to be 0.59 µM; in the experiment on T47D cells it was 0.65 µM; in the experiment on DU4475 it was 0.42 µM; on MELK (setting [1]) it was 0.083 µM; in the experiment with HT-1197 cells it was 4.2 µM.
With `N#Cc1ncc(-c2ccc3ncc(C(=O)C4CC4)c(Nc4ccc(CN5CCOCC5)cc4)c3c2)cn1` [Example 461], the IC50 in the experiment with A549 cells was 1.6 µM; in the experiment on T47D cells, 0.17 µM; with DU4475, 0.41 µM; at MELK (setting [1]), 0.015 µM; with HT-1197 cells, 2 µM.
As to `COc1cc(-c2ccc3ncc(C(=O)C4CC4)c(Nc4ccc(CN5CCOCC5)cc4)c3c2)cc(Cl)c1O` [Example 462], the half-maximal inhibitory concentration (IC50) is 0.7 µM in the experiment with A549 cells; 0.44 µM with T47D cells; 1.1 µM in the experiment with DU4475; 0.066 µM on MELK (setting [1]); 6 µM in the experiment with HT-1197 cells.
The like results for `CN(C)CC(=O)N1CC2CC1CN2c1c(C(=O)C2CC2)cnc2ccc(-c3ccc(O)c(Cl)c3)cc12` (stereo not drawn) [Example 464] were, in that order, 5.5 µM, 6.6 µM, 3.4 µM, 0.051 µM and 17 µM.
On to `CN(C)CC1CCN(c2c([S+](C)[O-])cnc3ccc(-c4ccc(O)c(Cl)c4)cc23)CC1` (stereo not drawn) [Example 466], for which the IC50 was 1.9 µM with A549 cells; 0.67 µM in the experiment on T47D cells; 1.1 µM in the experiment with DU4475; 0.016 µM at MELK (setting [1]); 6.7 µM in the experiment with HT-1197 cells.
Consider `CN(C)CC1CCN(c2c([S+](C)[O-])cnc3ccc(-c4cc(F)c(O)c(Cl)c4)cc23)CC1` (stereo not drawn) [Example 467], for which the IC50 in the experiment on A549 cells turned out to be 13 µM; with T47D cells it was 1.5 µM; in the experiment on DU4475, 1.2 µM; at MELK it was 0.011 µM; with HT-1197 cells it was 35 µM.
Consider `COc1cc(-c2ccc3ncc([S+](C)[O-])c(N4CCC(CN(C)C)CC4)c3c2)cc(Cl)c1O` (stereo not drawn) [Example 468], for which the IC50 came to 1.4 µM in the experiment with A549 cells; 0.93 µM with T47D cells; 0.93 µM with DU4475; 0.0051 µM at MELK; 9.2 µM in the experiment on HT-1197 cells.
Take `CN1CCN(c2ccc(Nc3c(C(=O)C4CC4)cnc4ccc(-c5cnc(C#N)nc5)cc34)cn2)CC1` [Example 469]: the IC50 in the experiment with A549 cells stood at 0.99 µM; in the experiment with T47D cells, 0.18 µM; in the experiment with DU4475, 0.43 µM; on MELK, 0.0015 µM; in the experiment with HT-1197 cells, 1.4 µM.
On to `COc1cc(-c2ccc3ncc(C(=O)C4CC4)c(Nc4ccc(N5CCN(C)CC5)nc4)c3c2)cc(Cl)c1O` [Example 470], for which the IC50 in the experiment on A549 cells came out at 0.56 µM; in the experiment with T47D cells, 0.26 µM; in the experiment on DU4475, 0.68 µM; at MELK, 0.015 µM; in the experiment on HT-1197 cells it was 2.2 µM.
With `CN1CCN(c2ccc(Nc3c(C(=O)C4CC4)cnc4ccc(-c5cc(F)c(O)c(Cl)c5)cc34)cn2)CC1` [Example 471], the concentration for half-maximal inhibition (IC50) in the experiment on A549 cells amounted to 0.21 µM; in the experiment on T47D cells it was 0.14 µM; with DU4475, 0.14 µM; at MELK, 0.011 µM; with HT-1197 cells, 2.8 µM.
For `CN1CCN(c2ccc(Nc3c(C(=O)C4CC4)cnc4ccc(-c5cc(Cl)c(O)c(Cl)c5)cc34)cn2)CC1` [Example 472], the half-maximal inhibitory concentration (IC50) in the experiment on A549 cells was found to be 0.18 µM; in the experiment on T47D cells it was 0.3 µM; in the experiment on DU4475, 0.11 µM; at MELK, 0.023 µM; in the experiment on HT-1197 cells it was 5.7 µM.
